Like-named read-outs stand apart in the source and are kept apart here.
Columns and labels:
[1] = molecular target: T1, human recombinant AT1 receptor (Homo sapiens, UniProt P30556); test: Binding to AT1 receptor, radiometric scintillation assay (Eurofins); details: ligand 125I(sar1,Ile8)-AT-II, tested at 1 and 10 μM
T1 construct: purchased Eurofins ITEM24
T1 sequence (P30556 1-359): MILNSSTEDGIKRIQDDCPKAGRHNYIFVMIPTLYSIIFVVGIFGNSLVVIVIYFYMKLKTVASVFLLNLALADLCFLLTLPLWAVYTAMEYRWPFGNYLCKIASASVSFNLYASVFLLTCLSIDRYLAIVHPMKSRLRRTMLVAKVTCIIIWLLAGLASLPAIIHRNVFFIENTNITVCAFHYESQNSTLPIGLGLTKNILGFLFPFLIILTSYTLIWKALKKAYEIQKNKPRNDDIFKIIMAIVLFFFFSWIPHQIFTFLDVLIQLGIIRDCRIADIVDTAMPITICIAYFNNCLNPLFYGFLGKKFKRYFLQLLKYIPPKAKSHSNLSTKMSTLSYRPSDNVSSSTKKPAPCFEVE
Description: (§1) Compounds were evaluated for binding to the human recombinant AT2 and AT1 receptor according to Eurofins protocol ITEM26 and ITEM24 using a radiometric scintillation assay.

[2] = molecular target: T2, human recombinant AT2 receptor (Homo sapiens, UniProt P50052); test: Binding to AT2 receptor, radiometric scintillation assay (Eurofins); details: ligand 125I CGP 42112A, tested at 1, 10, 100 and 1000 nM
T2 construct: purchased Eurofins ITEM26
T2 sequence (P50052 1-363): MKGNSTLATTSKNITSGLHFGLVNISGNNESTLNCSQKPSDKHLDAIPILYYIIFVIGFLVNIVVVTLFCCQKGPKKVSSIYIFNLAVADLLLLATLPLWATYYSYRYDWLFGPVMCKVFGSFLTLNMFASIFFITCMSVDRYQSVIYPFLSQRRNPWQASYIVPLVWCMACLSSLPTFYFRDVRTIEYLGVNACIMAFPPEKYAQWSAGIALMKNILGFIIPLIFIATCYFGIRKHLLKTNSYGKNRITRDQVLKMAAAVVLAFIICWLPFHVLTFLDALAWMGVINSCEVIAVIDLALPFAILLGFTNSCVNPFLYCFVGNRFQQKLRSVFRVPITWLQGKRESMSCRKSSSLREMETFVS
Description: as §1

CYP1A = molecular target: T3, CYP1A (Homo sapiens, UniProt P05177); test: CYP inhibition in human liver microsomes, CYP1A; assay type: in vitro ADME; details: probe phenacetin, substrate phenacetin, read-out: CYP1A Inh %
T3 construct: incubated with human liver microsomes; tissue Eurofins ITEMG232; host or cells: human liver microsomes
T3 sequence (P05177 1-516): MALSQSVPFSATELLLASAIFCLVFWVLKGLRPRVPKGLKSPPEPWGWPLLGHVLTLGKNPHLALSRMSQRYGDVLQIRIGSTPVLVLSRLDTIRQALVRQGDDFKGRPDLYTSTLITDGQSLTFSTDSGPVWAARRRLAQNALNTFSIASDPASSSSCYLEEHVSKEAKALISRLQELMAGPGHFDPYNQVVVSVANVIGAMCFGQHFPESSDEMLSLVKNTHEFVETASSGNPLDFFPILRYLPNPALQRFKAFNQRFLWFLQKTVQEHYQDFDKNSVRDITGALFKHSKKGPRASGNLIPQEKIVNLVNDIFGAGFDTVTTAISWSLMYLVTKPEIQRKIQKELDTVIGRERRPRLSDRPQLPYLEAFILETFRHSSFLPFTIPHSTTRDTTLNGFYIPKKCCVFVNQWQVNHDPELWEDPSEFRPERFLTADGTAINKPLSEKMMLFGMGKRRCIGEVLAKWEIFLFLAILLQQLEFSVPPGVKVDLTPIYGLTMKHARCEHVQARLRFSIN
Description: (§2) The following substrates were used: CYP1A phenacetin, CYP2B6 bupropion, CYP2C8 paclitaxel and amodiaquine, CYP2C9 diclofenac, CYP2C19 omeprazole, CYP2D6 dextromethorphan, CYP3A midazolam and testosterone. At the end of the incubation, the formation of metabolite was monitored by HPLC-MS/MS as the peak area response.

CYP2C19 = molecular target: T4, CYP2C19 (Homo sapiens, UniProt P33261); test: CYP inhibition in human liver microsomes, CYP2C19; assay type: in vitro ADME; details: probe omeprazole, substrate omeprazole, read-out: CYP2C19 Inh %
T4 construct: incubated with human liver microsomes; tissue Eurofins ITEMG232; host or cells: human liver microsomes
T4 sequence (P33261 whole entry): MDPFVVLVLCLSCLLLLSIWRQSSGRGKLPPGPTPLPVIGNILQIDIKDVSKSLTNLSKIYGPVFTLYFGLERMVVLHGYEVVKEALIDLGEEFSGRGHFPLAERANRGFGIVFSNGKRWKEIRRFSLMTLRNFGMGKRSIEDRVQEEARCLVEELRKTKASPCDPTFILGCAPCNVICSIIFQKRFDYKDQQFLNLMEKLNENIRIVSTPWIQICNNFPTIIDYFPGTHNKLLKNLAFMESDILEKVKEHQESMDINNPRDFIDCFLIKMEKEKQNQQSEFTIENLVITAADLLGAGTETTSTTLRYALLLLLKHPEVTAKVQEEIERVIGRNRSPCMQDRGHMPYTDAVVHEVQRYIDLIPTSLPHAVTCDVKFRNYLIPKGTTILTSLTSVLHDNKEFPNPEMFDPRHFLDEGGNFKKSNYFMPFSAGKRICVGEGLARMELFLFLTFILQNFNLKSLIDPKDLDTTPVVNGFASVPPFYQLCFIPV
Description: as §2

CYP2B6 = molecular target: T5, CYP2B6 (Homo sapiens, UniProt P20813); test: CYP inhibition in human liver microsomes, CYP2B6; assay type: in vitro ADME; details: probe bupropion, substrate bupropion, read-out: CYP2B6 Inh %
T5 construct: incubated with human liver microsomes; tissue Eurofins ITEMG232; host or cells: human liver microsomes
T5 sequence (P20813 1-491): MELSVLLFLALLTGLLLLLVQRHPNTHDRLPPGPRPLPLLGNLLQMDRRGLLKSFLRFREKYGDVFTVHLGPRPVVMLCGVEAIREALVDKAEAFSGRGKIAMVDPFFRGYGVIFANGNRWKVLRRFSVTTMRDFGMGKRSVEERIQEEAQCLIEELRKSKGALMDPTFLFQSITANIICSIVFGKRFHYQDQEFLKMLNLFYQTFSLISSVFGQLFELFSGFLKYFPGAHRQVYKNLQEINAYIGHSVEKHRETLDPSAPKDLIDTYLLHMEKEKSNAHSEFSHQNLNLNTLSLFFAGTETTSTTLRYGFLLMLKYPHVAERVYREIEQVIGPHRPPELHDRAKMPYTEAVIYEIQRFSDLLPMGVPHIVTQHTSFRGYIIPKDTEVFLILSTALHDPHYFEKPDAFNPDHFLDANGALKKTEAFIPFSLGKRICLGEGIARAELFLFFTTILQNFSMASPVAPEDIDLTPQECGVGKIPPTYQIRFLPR
Description: as §2

CYP2C9 = CYP2C9 (Homo sapiens, UniProt P11712); test: CYP inhibition in human liver microsomes, CYP2C9; assay type: in vitro ADME; parameters: incubated with human liver microsomes; tissue Eurofins ITEMG232; host or cells: human liver microsomes; details: probe diclofenac, substrate diclofenac, read-out: CYP2C9 Inh %
Chain of CYP2C9 (P11712 whole entry): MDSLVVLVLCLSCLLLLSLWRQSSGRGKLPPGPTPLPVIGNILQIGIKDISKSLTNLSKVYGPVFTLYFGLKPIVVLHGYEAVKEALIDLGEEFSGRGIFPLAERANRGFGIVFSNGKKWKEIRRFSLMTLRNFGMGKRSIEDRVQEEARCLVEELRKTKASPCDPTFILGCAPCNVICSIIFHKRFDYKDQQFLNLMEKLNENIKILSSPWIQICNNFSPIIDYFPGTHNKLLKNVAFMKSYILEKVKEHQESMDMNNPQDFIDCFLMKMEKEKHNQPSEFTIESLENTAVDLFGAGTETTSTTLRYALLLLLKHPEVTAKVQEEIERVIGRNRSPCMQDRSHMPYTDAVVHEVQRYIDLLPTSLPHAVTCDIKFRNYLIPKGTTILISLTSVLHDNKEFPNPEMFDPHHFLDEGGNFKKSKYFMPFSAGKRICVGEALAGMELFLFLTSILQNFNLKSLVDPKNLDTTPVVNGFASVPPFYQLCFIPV
Description: as §2

CYP2D6 = molecular target: T6, CYP2D6 (Homo sapiens, UniProt P10635); test: CYP inhibition in human liver microsomes, CYP2D6; assay type: in vitro ADME; details: probe dextromethorphan, substrate dextromethorphan, read-out: CYP2D6 Inh %
T6 construct: incubated with human liver microsomes; tissue Eurofins ITEMG232; host or cells: human liver microsomes
T6 sequence (P10635 whole entry): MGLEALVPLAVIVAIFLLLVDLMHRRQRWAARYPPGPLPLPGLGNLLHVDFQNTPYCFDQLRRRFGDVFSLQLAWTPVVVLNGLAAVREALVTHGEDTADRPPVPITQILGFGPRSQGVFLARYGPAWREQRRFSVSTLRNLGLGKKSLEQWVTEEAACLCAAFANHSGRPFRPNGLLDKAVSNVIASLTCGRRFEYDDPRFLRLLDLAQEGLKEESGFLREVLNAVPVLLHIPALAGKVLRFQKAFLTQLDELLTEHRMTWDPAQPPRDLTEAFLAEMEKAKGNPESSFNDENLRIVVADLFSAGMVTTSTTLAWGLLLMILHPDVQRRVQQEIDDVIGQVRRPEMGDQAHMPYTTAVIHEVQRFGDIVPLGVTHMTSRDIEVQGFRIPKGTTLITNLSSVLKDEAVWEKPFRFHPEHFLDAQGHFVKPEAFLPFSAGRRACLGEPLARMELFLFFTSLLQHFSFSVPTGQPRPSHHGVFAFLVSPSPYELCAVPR
Description: as §2

CYP2C8 = molecular target: T7, CYP2C8 (Homo sapiens, UniProt P10632); test: CYP inhibition in human liver microsomes, CYP2C8; assay type: in vitro ADME; details: probe paclitaxel and amodiaquine, substrate paclitaxel and amodiaquine, read-out: CYP2C8 Inh %
T7 construct: incubated with human liver microsomes; tissue Eurofins ITEMG232; host or cells: human liver microsomes
T7 sequence (P10632 1-490): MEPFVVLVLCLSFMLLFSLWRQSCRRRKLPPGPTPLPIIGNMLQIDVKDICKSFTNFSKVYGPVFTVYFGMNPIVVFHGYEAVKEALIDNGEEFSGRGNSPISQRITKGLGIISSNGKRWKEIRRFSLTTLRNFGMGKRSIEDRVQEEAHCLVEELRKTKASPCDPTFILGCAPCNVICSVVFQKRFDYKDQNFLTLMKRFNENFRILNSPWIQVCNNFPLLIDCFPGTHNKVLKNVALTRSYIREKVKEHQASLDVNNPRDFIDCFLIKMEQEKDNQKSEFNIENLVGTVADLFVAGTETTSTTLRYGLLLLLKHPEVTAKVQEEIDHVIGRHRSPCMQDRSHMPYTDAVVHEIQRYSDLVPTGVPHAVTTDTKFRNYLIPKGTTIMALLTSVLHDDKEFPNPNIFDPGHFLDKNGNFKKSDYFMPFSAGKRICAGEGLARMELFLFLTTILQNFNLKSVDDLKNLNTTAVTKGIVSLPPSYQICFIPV
Description: as §2

CYP3A4 = CYP3A4 (Homo sapiens, UniProt P08684); test: CYP inhibition in human liver microsomes, CYP3A4 (midazolam); assay type: in vitro ADME; parameters: incubated with human liver microsomes; tissue Eurofins ITEMG232; host or cells: human liver microsomes; details: probe midazolam, substrate midazolam, read-out: CYP3A4 midazolam Inh %
Chain of CYP3A4 (P08684 whole entry): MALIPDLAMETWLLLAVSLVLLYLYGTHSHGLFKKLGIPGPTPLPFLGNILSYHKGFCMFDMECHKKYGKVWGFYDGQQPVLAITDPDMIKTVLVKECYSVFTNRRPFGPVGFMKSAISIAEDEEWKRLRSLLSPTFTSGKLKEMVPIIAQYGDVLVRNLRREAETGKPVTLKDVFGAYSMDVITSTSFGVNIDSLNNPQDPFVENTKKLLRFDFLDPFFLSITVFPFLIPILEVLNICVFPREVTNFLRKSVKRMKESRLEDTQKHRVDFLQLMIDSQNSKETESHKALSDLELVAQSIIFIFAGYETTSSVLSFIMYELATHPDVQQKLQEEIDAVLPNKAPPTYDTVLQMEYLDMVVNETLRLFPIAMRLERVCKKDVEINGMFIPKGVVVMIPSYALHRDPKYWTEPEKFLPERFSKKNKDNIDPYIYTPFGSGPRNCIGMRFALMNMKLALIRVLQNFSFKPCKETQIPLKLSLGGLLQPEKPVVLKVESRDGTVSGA
Description: as §2

CYP3A4&5 = test: CYP inhibition in human liver microsomes, CYP3A4&5 (testosterone); assay type: in vitro ADME; details: probe testosterone, substrate testosterone, read-out: CYP3A4&5 testosterone Inh %
Description: as §2

[3] = Metabolic stability in pooled human liver microsomes; assay type: in vitro ADME; details: pooled human liver microsomes 0.5 mg/ml, 1 μM test compound, 37° C.
Description: Pooled human liver microsomes in PBS at a concentration of 0.5 mg/ml was incubated with or without 1 mM NADPH for 70 min at 37° C. Test compound was added after 10 minutes to a final concentration of 1 μM. Samples were withdrawn at 0, 5, 15 and 60 minutes and added to test tubes containing acetonitrile, to stop the reaction, and with terfenadine, used as internal standard. After centrifugation at 10 000×g for 5 minutes the supernatant was diluted 1:1 with 1% formic acid. Samples were separated on a reverse phase column and detected by triple quadrupole MSMS (Agilant model 6540). The concentration of the parent compound at the different time points was measured with an external standard curve using terfenadine as internal standard and the initial metabolic rate in the presence or absence of NADPH calculated.

[4] = with 1 mM NADPH, read-out: T1/2, + NaDPH
[5] = without NADPH, read-out: T1/2, no NaDPH

IC50 [1] [µM] | IC50 [2] [µM] | inhibition at 10 µM (CYP1A) [%] | inhibition at 10 µM (CYP2C19) [%] | inhibition at 10 µM (CYP2B6) [%] | inhibition at 10 µM (CYP2C9) [%] | inhibition at 10 µM (CYP2D6) [%] | inhibition at 10 µM (CYP2C8) [%] | inhibition at 10 µM (CYP3A4) [%] | inhibition at 10 µM (CYP3A4&5) [%] | half-life at 1 μM [3, 4] [h] | half-life at 1 μM [3, 5] [h] | Compound
16 | 0.357 | – | – | – | – | – | – | – | – | – | – | Cc1nccn1Cc1ccc(-c2cc(CC(C)C)sc2S(=O)(=O)NC(=O)NCc2cc(F)cc(F)c2)nc1 [Example 23, 1-[(3,5-Difluorophenyl)methyl]-3-(5-isobutyl-3-{5-[(2-methyl-1H-imidazol-1-yl)methyl]-2-pyridyl}-2-thienylsulfonyl)urea]
– | – | 4 | 62 | 33 | 64 | 58 | 51 | 32 | 24 | – | – | Cc1nccn1Cc1ccc(-c2cc(CC(C)C)sc2S(=O)(=O)NC(=O)NCc2ccccc2)cc1F [Example 12, 1-Benzyl-3-(3-{3-fluoro-4-[(2-methyl-1H-imidazol-1-yl)methyl]phenyl}-5-isobutyl-2-thienylsulfonyl)urea]
– | – | -1 | 53 | 30 | 61 | 12 | 64 | -3 | 13 | 0.667 | > 1 | CCc1nccn1Cc1ccc(-c2cc(CC(C)C)sc2S(=O)(=O)NC(=O)NCCC(F)(F)F)cc1F.O=C(O)C(F)(F)F [Example 30, 1-[(3-{4-[(2-ethyl-1H-imidazol-1-yl)methyl]-3-fluorophenyl}-5-(2-methylpropyl)thiophen-2-yl)sulfonyl]-3-(3,3,3-trifluoropropyl)urea trifluoroacetic acid]
– | – | -4.2 | 37.3 | 9.9 | 21.6 | 5.5 | 25.3 | 4.1 | 8.2 | > 1 | > 1 | Cc1nccn1Cc1ccc(-c2cc(CC(C)C)sc2S(=O)(=O)NC(=O)NCCC(F)(F)F)cc1 [Example 3, 3-(5-isobutyl-3-{p-[(2-Methyl-1H-imidazol-1-yl)methyl]phenyl}-2-thienylsulfonyl)-1-(3,3,3-trifluoropropyl)-urea]
– | – | 15 | 78 | 59 | 62 | 20 | 72 | 50 | 24 | 0.5 | > 1 | Cc1nccn1Cc1ccc(-c2cc(CC(C)C)sc2S(=O)(=O)NC(=O)NCCCC(F)(F)F)cc1F [Example 18, 3-(3-{3-Fluoro-4-[(2-methyl-1H-imidazol-1-yl)methyl]phenyl}-5-isobutyl-2-thienylsulfonyl)-1-(4,4,4-trifluorobutyl)urea]
– | – | 21.2 | 95.8 | 18.8 | 24 | 0 | 60.2 | 17.5 | 29.8 | 0.767 | > 1 | Cc1cn(Cc2ccc(-c3cc(CC(C)C)sc3S(=O)(=O)NC(=O)NCCC(F)(F)F)cc2)c(C)n1 [Example 8, 3-(3-{p-[(2,4-Dimethyl-1H-imidazol-1-yl)methyl]phenyl}-5-isobutyl-2-thienylsulfonyl)-1-(3,3,3-trifluoropropyl)urea]
– | – | -9 | 18 | 0 | 28 | 24 | 52 | -19 | 17 | > 1 | > 1 | CCc1nccn1Cc1ccc(-c2cc(CC(C)C)sc2S(=O)(=O)NC(=O)NCc2ccccn2)cc1 [Example 9, 3-(3-{p-[(2-Ethyl-1H-imidazol-1-yl)methyl]phenyl}-5-isobutyl-2-thienylsulfonyl)-1-[(2-pyridyl)methyl]urea]
